Source: patent US20100035822A1, “PROLINE-RICH PEPTIDES, PHARMACEUTICAL COMPOSITION, USE OF ONE OR MORE PEPTIDES AND METHOD OF TREATMENT” (priority 2006, published 2010)
Entries after “also recorded” stand apart in the source; their conditions may differ.

Tests used:
[1] = system: SK-N-AS cells (human neuroblastoma); assay: Free intracellular Ca2+ concentration in SK-N-AS cells (fluo-3 AM, confocal microscopy); format: cell-based; conditions: 1 μM
Protocol: In these experiments the variation in free intracellular calcium [Ca^2+]i concentration was measured in SK-N-AS cells (human neuroblastoma, ATCC No. CRL-2137) after addition of 1 μmolar of peptides SEQ ID NO 1 or SEQ ID NO 8, or of 1 μmolar captopril. Cells were kept in DMEM (Dulbecco Modified Medium), supplemented with 10% fetal bovine serum (FBS) and 1% non-essential amino acids, at 5% CO2 atmosphere, at 37° C., and 95% relative humidity. Cells were treated with trypsin, and replicated at adequate cell concentrations.
Measurements of variation in the concentration of free [Ca^2+]i were performed with a confocal microscope LSM 510 (Zeiss, Jena, Germany), as described by Martins et al., (Martins et al., Neuronal differentiation of P19 embryonal carcinoma cells modulates kinin B2 receptor gene expression and function. J. Biol. Chem. 280: 19576-19586, 2005). Approximately 5×10^4 SK-N-AS cells were plated on 60 mm plates 24 hours prior to measurement, and then treated with 4 μM fluo-3 AM (Invitrogen Corporation) in 0.5% DMSO and 0.1% non-ionic surfactant pluronic acid F-127 for 30 minutes at 37° C. Cells were washed with DMEM containing 10% FBS, and transferred to defined medium (5 μg/ml insulin, 30 μg/ml transferrin, 20 μM ethanolamine, 30 nM sodium selenite, 1 μM sodium pyruvate, 1% non-essential amino acids, 1 mM glutamine, 100 μg/ml penicillin, 100 μg/ml streptomycin, 10 mM HEPES pH 7.4 in DMEM). The fluorescent fluo-3 AM was excited at 488 nm, and the fluorescence measured at 526 nm.
Variations in the [Ca^2+]i were measured in non-stimulated cells, and in cells stimulated with peptides SEQ ID NO 1 or SEQ ID NO 8, or with captopril (Sigma Aldrich). Increase of fluorescence was monitored for 2 minutes, and images were acquired in 256×256 pixels every second. At the end of each experiment, 5 μM ionophore (4-Br-A23187) were added, followed by 10 mM EGTA, or 20 μM digitonin to determine maximum and minimum fluorescence, Fmax and Fmin respectively, as described by Grynkiewicz et al., (1985).
Intracellular calcium concentrations [Ca^2+]i, related to fluorescence (F) values obtained after addition of peptides SEQ ID NO 1 or SEQ ID NO 8, were calculated with the equation: [Ca^2+]=Kd(F−Fmin)/(Fmax−F), assuming Kd=450 nM for fluo-3 AM (Hallett et al., 1990).

[2] = system: renal nitric oxide synthase (NOS); assay: Activation of kidney NOS in mice (3H-arginine to 3H-citrulline conversion); format: in vivo, mouse
Protocol: Male Swiss albinos weighing 22-25 g were injected intraperitoneally with: (1) 50 μl 0.9% NaCl (basal level control), or with 0.9% NaCl supplemented with LPS (2 mg/Kg) (positive control); (2) SEQ ID NO 8 (0.21, 0.91, and 3.47 mg/Kg); (3) SEQ ID NO 8 (0.91 mg/Kg) injected into animals pre-treated via intraperitoneally with L-NAME (3 mg/Kg for 1 h); (4) SEQ ID NO 8 (0.91 mg/Kg) injected into animals pre-treated via intraperitoneally with HOE140 (10 μg/Kg for 1 h); (5) captopril (0.21, 0.91, and 3.47 mg/Kg). After 5, 15, 30, 60, 120, and 180 min, animals were killed, their kidneys removed and stored at −70° C. Animals of group 3 and 4 were killed 30 minutes after administration of the oligopeptide.
NOS activity was measured according to Bredt and Snyder [Bredt D S and Snyder S H. Isolation of nitric oxide synthetase, a calmodulin-requiring enzyme. Proc. Natl. Acad. Sci. USA, 87, 682-685, 1990], and is based on estimating the enzymatic activity of the conversion of L-arginine into L-citrulline using ^3H-arginine as a reference for the conversion.
The kidneys were minced in homogenizing buffer, pH 7.4 (20 mM HEPES, 0.32 M saccharose, 1 mM DTT, 0.1 mM EDTA, 1 mM PMSF), and sonicated. Protein dosage was performed according to Bradford (1976), followed by a chromatography step in a 300 μL Dowex 50WX8-400 column.
For the enzymatic assay, 80 μg total protein from each sample were incubated for 60 minutes at 37° C. in 200 μL buffer (30 mM HEPES, 1 mM EDTA, 1.25 mM CaCl2, 1 mM NADPH, 10 μg/mL calmodulin, 4 μM FAD, 4 μM FMN, 25 μM BH4, 120 nM arginine, 0.5 μCi ^3H-arginine). The reaction was stopped by the addition of 1 ml 20 mM HEPES, and incubation in ice bath. ^3H-citrulline was separated from ^3H-arginine by ion-exchange chromatography in a 300 μL Dowex 50WX8-400 column. Radioactivity of the eluates was measured in a beta-counter. After converting cpm (counts per minute) into dpm (disintegration per minute), the specific activity of the nitric oxide synthase (NOS) was calculated using the following equation: […]

CC(CS)C(=O)N1CCC[C@@H]1C(=O)O (stereo partly drawn) [captopril, D-3-mercapto-2-methyl-1-oxopropyl-L-proline, reference compound]
change of intracellular [Ca2+]i [1]: no change; also recorded: did not cause any change
renal NOS activity after injection ([2]; 0.2-3.5 mg/Kg of body weight): No significant renal NOS activity

<ENWPHPQIPP [SEQ ID NO 8]
change of intracellular [Ca2+]i [1]: Increase
activation of mouse renal NOS activity ([2]; approximately 1 mg/Kg body weight): approximately 60%
